In US7115589B2, “Purine derivatives” (ARIAD Pharmaceuticals, Inc., priority 1999, dated 2006):

- melting point: 117 to 118 °C
SMILES: CCOP(=O)(OCC)c1ccc(Nc2nc(C3CCCC3)nc3c2ncn3C(C)C)cc1
